In patent US11311015B2, “Herbicidal combination” (UPL LIMITED, priority 2018, dated 2022):

Tested on: yellow nutsedge
Assay: Field trial, post-emergence control of yellow nutsedge (Blacksburg, Va.)
Assay type: in vivo, Cyperus esculentus
Conditions: for Yellow nut sedge (Percentage weed cover), 05/07 / Yellow nut sedge (Percentage weed cover), 13/06 / Yellow nut sedge (Percentage weed cover), 20/6 / Yellow nut sedge (Percentage Control), 05/07 / Yellow nut sedge (Percentage Control), 13/06 / Yellow nut sedge (Percentage Control), 20/6: post-emergence field plots, dosage 1X single, 0.5X two-way; for Yellow nut sedge (Percentage weed cover), 05/07: rating date 05/07 (29 DAT), untreated 59; for Yellow nut sedge (Percentage weed cover), 05/07 / Yellow nut sedge (Percentage weed cover), 13/06 / Yellow nut sedge (Percentage weed cover), 20/6 / Yellow nut sedge (Percentage Control), 05/07 / Yellow nut sedge (Percentage Control), 20/6: 0.33X three-way; for Yellow nut sedge (Percentage weed cover), 13/06: rating date 13/06, untreated 50; for Yellow nut sedge (Percentage weed cover), 20/6: rating date 20/6, untreated 49; for Yellow nut sedge (Percentage Control), 05/07: trial initiated June 6, rating date 05/07 (29 DAT); for Yellow nut sedge (Percentage Control), 13/06: trial initiated June 6, rating date 13/06, 0.33X three-way (rates Table 2); for Yellow nut sedge (Percentage Control), 20/6: trial initiated June 6, rating date 20/6; for Burn down / residual control of sedges, result in words: speed of burn down, onset of plant necrosis
Method: An exemplary combination according to the invention was used for sedge and broadleaf weed control for agricultural crops, turf, ornamentals, and landscape. The exemplary combination was used for the post-emergence control of sedges, as well as the control/suppression of various broadleaf and grassy weeds.
A field trial was conducted to evaluate the effectiveness of the combinations of three active ingredients according to the invention when used post emergence, at different rates, compared to industry standards—stand alone and 2 way mixture of compounds for efficacy of yellow nutsedge. The active ingredient combination used in the trial was bentazon+halosulfuron+sulfentrazone. The trial was conducted in Blacksburg, Va. and was initiated on June 6 under Protocol #BRLM-62-US-VA-18-10-BTC. The plots were in fallow area primarily covered with yellow nutsedge and tall fescue, and were sprayed at 4 week intervals. (2 applications total). The application dosages of the herbicides, when used in isolation and when used in the combinations were as follows: […]

| Structure (SMILES) | Yellow nut sedge (Percentage weed cover), 05/07 [%] | Yellow nut sedge (Percentage weed cover), 13/06 [%] | Yellow nut sedge (Percentage weed cover), 20/6 [%] | Yellow nut sedge (Percentage Control), 05/07 [%] | Yellow nut sedge (Percentage Control), 13/06 [%] | Yellow nut sedge (Percentage Control), 20/6 [%] | Weed control of yellow nutsedge, result in words (post-emergence field trial, compared to individual products and 2 way mixes) | Burn down / residual control of sedges, result in words |
| --- | --- | --- | --- | --- | --- | --- | --- | --- |
| CC(C)N1C(=O)c2ccccc2NS1(=O)=O [Bentazone] | 10 | 40 | 8 | 76 | 65 | 75 | did not provide sufficient weed control | fairly rapid burn down of some of the sedges |
| COC(=O)c1c(Cl)nn(C)c1S(=O)(=O)NC(=O)Nc1nc(OC)cc(OC)n1 [Halosulfuron, Halosulfuron-methyl] | 8 | 50 | 16 | 81 | 36 | 60 |  | delayed response of up to four weeks before plant necrosis began |
| Cc1nn(-c2cc(NS(C)(=O)=O)c(Cl)cc2Cl)c(=O)n1C(F)F [Sulfentrazone] | 9 | 44 | 11 | 75 | 58 | 73 |  | fairly rapid burn down of some of the sedges |
